Assay results reported in patent publication US4874526A, “Treatment of water” (Ciba-Geigy Corporation, priority 1981, dated 1989).
Where two headings read alike, the source gives them in different places.

How the values were obtained:
[1] = Standard Ross-Miles foam test; assay type: physicochemical; conditions: 0.05%; for foam production: compared with S or 22
[2] = tested on: mixed culture of bacteria; experiment: Minimum concentration required to kill a given number of organisms (MKC), mixed culture of slime-forming bacteria, 5 hours exposure; assay type: cell-based
Procedure: The effect of the number of organisms present on the biological activity of tri-n-butyl tetradecyl phosphonium chloride was compared with that for various quaternary ammonium compounds. This was done by measuring the MKC value i.e. the minimum concentration (expressed in ppm active ingredient) of chemical required to kill a given number or organisms. In the test carried out, a suspension of a mixed culture of bacteria containing the following slime-forming organisms:
Proteus vulgaris was diluted to give suspensions containing 10^6 /ml (A), 10^5 /ml (B) and 10^4 /ml (C) bacteria. These suspensions were then exposed to varying concentrations of the biocides for 5 hours and the MKC value measured.

Tribonema aequale = experiment: Algal growth inhibition (MIC), strain B (Example 7); assay type: cell-based
Procedure: (§1) The algae was diluted (1 to 200) in further algae medium and the phosphonium compounds added to give final concentrations of 1, 2.5, 3.4 and 6.8 ppm active ingredient. The algal suspensions were then incubated in a shaking water bath at 18° C., with a daily cycle of 14 hours light and 10 hours darkness. The suspensions were assessed visually for growth of algae and the Minimum Inhibition Concentration (MIC) was recorded as the lowest concentration of product at which there was no growth for each algal strain. A similar experiment was also carried out using a mixed algal culture including strains a to d together with the following strains:
(§2) The activity of the phosphonium compounds listed below against three strains of algae is determined according to the procedure set out in example 5.

Scenedesmus obliquus = experiment: Algal growth inhibition (MIC), strain A (Example 7); assay type: cell-based; conditions: Tetradesmus obliquus
Procedure: as §1, §2

Haematococcus lacustris = experiment: Algal growth inhibition (MIC), strain C (Example 7); assay type: cell-based
Procedure: as §1
The activity of the phosphonium compounds listed below against three strains of algae is determined according to the procedure set out in example 5. The three strains of algae are:
Haematococcus lacustris (C)

[3] = Surface tension of dilute aqueous solutions (Example 2); assay type: physicochemical; conditions: FIG. 8, in comparison with 22
Procedure: The surface activity of the following compounds was measured by determining the surface tension of dilute aqueous solutions of the chemicals: […]

Phormidium foveolarum = experiment: Algal growth inhibition (MIC), strain b (Example 5); assay type: cell-based; conditions: Nodosilinea foveolarum
Procedure: (§3) Cultures of the following strains of algae were grown in algae nutrient medium over a period of 14 days:
(b) Phormidium foveolarum
as §1, with “strains: […]” for “strains:”

mixed algal culture = experiment: Algal growth inhibition (MIC), mixed algal culture (Example 5); assay type: cell-based
Procedure: as §1
In this experiment the concentrations of phosphonium compounds present were 2, 5, 7.5 and 10 ppm.

Chlorella vulgaris = experiment: Algal growth inhibition (MIC), strain c (Example 5); assay type: cell-based
Procedure: as §3
as §1, with “strains: […]” for “strains:”

[4] = Reduction of the surface tension of water (Example 6); assay type: physicochemical; conditions: distilled water 72.8 dynes/cm
Procedure: The effect of respective test compounds on the surface tension of water was also determined, the results being shown in the following Table:
Reduction of the surface tension.

germs = experiment: Survival rate of germs in circulation systems with cooling tower; conditions: 3 h, 20 ppm active ingredient, read-out: Survival rate of germs 3h after biocide addition
Procedure: The compounds below were tested in circulation systems, set up on a roof, and consisting of the following:
1. A plastic barrel having a volume of 113 liters.
2. A Siemens pump (21 liters/minute delivery at a delivery hight of 3 meters).
3. A cooling tower with Oreogn pine heartwood, oak, spruce, asbestos cement and PVC panels.
120-124 liters of make-up water were added daily to achieve a half-life in the system of about one day.
The systems were inoculated naturally with airborne dust, spores and pollen.
The systems were treated with compound to be tested on the first day then on day 7, day 21 and over 45 days. The number of germs/ml of water in the system is measured before and 3 hours after addition of the compound being tested.
The germ count was carried out by standard serial dilution and plating out on Agar nutrient and, afer incubation, counting the bacterial colonies present on the surface.
In each case the dosage of compound added was 20 ppm active ingredient.

[5] = Foaming in the cooling system (Example 6); assay type: physicochemical
Scenedesmus spec. = experiment: Algal growth inhibition (MIC), strain d (Example 5); assay type: cell-based
Procedure: as §3
as §1, with “strains: […]” for “strains:”

Oscillatoria geminata = experiment: Algal growth inhibition (MIC), strain a (Example 5); assay type: cell-based; conditions: Jaaginema geminatum
Procedure: as §3
(a) Oscillatoria geminata
as §1, with “strains: […]” for “strains:”

algae = experiment: Anti-algal effect, algae in general; assay type: cell-based; conditions: compared with triphenyl-dodecyl phosphonium chloride
From the text: The anti-algal effect of the respective test compounds was also examined. […] Thus, the compound of the invention when used in an amount of 1 ppm inhibited the algal strains chlorella vulgaris snd scenedesmus spec. (which strains are very significant strains in cooling systems) where 2, 5 or 10 ppm was required when using triphenyl-dodecyl phosphonium chloride.

[6] = read-out: MKC, A: 10^6/ml bacteria, ppm active ingredient
[7] = read-out: MKC, B: 10^5/ml bacteria, ppm active ingredient
[8] = read-out: MKC, C: 10^4/ml bacteria, ppm active ingredient

SMILES | Foam Height ([1]; 1 minute) [mm] | Foam Height ([1]; 30 minutes) [mm] | Foam Height ([1]; 60 minutes) [mm] | MBC [2, 6] [µg/mL] | MBC [2, 7] [µg/mL] | MBC [2, 8] [µg/mL] | MIC (Tribonema aequale; strain B, read-out: MIC) [µg/mL] | MIC (Scenedesmus obliquus; strain A, read-out: MIC) [µg/mL] | foam production [1] | MIC (Haematococcus lacustris; strain C, read-out: MIC) [µg/mL] | surface activity [3] | MIC (Tribonema aequale) [µg/mL] | MIC (mixed algal culture) [µg/mL] | Surface tension ([4]; 5 mg/l) [dynes/cm] | Surface tension ([4]; 10 mg/l) [dynes/cm] | Surface tension ([4]; 15 mg/l) [dynes/cm] | Surface tension ([4]; 20 mg/l) [dynes/cm] | Surface tension ([4]; 30 mg/l) [dynes/cm] | viability at 20 ppm (germs; 0 d) [%] | viability at 20 ppm (germs; 7 d) [%] | further results
CCCCCCCCCC[N+](C)(C)CCCCCCCCCC.[Cl-] [Dimethyl di-n-decyl ammonium chloride, dimethyl di-n-decyl ammonium chloride, reference compound] | 45 | 40 | 38 | 25 | 25 | 12.5 | – | – | – | – | – | – | – | – | – | – | – | – | – | – | –
CCCCCCCCCCCC[P+](CCCC)(CCCC)CCCC.[Cl-] [Tri-n-butyl dodecyl phosphonium chloride, tri-n-butyl dodecyl phosphonium chloride] | 18 | 6 | 4 | – | – | – | 1 | 2 | much less foam than S or 22 | 1 | high surface activity | – | – | – | – | – | – | – | – | – | –
CCCCCCCCCCCC[P+](c1ccccc1)(c1ccccc1)c1ccccc1.[Cl-] [Triphenyl dodecyl phosphonium chloride, triphenyl dodecyl phosphonium chloride, reference compound] | – | – | – | – | – | – | – | – | – | – | – | 3 | 7.5 | 60.2 | 59.5 | 57.9 | 56.4 | 53.7 | 3 | 72 | MIC (Phormidium foveolarum): 1 µg/mL; MIC (Scenedesmus obliquus): 3 µg/mL; MIC (Chlorella vulgaris): 2.5 µg/mL; MIC (Haematococcus lacustris): 3 µg/mL; viability at 20 ppm (germs; 21 d): 110%; viability at 20 ppm (germs; >45 d): 130%; foaming in the cooling system [5]: some foaming problems were encountered; MIC (Scenedesmus spec.): 3.4 µg/mL; MIC (Oscillatoria geminata): 2.5 µg/mL
CCCCCCCCCCCCCC[P+](c1ccccc1)(c1ccccc1)c1ccccc1.[Br-] [Triphenyl tetradecyl phosphonium bromide, reference compound] | – | – | – | – | – | – | 3 | 6 | – | 6 | – | – | – | – | – | – | – | – | – | – | –
CCCCCCCCCCCCCC[P+](CCCC)(CCCC)CCCC.[Br-] [tri-n-butyl tetradecyl phosphonium bromide] | – | – | – | – | – | – | 0.3 | 2 | – | 2 | – | – | – | – | – | – | – | – | – | – | MIC (Phormidium foveolarum; strain b, 18° C., ppm active ingredient, read-out: MIC): 1 µg/mL; MIC (mixed algal culture; mixed culture, concentrations 2, 5, 7.5 and 10 ppm, read-out: MIC): 2 µg/mL; MIC (Chlorella vulgaris; strain c, 18° C., ppm active ingredient, read-out: MIC): 1 µg/mL; MIC (Scenedesmus spec.; strain d, 18° C., ppm active ingredient, read-out: MIC): 1 µg/mL; MIC (Oscillatoria geminata; strain a, 18° C., ppm active ingredient, read-out: MIC): 2.5 µg/mL
CCCCCCCCCCCCCC[P+](CCCC)(CCCC)CCCC.[Cl-] [tri-n-butyl tetradecyl phosphonium chloride] | 33 | 19 | 10 | 12.5 | 12.5 | 12.5 | – | – | much less foam than S or 22 | – | high surface activity | 2 | 5 | 52.9 | 48.8 | 47.1 | 45.6 | 42.3 | 1 | 9 | activity against algae (algae): more active against algae than triphenyl-dodecyl phosphonium chloride; viability at 20 ppm (germs; 21 d): 6%; viability at 20 ppm (germs; >45 d): 8%
